Literature values in patent US4177261A, “Pharmaceutical composition and method of stimulating blood circulation and wound healing” (Thera Gesellschaft fur Patentverwertung mbH, priority 1977, dated 1979).
No end group written: not given here.

Settings: intra-cuticular injection

Substance	Quantity causing vehement pain reactions
RPPGFSPFR [Brady kinin, (NH2) arginine-proline-proline-glycine-phenylalanine-serine-proline-phenylalanine-arginine (COOH)]	about 0.1 micrograms per 1 milliliter of solution
kallidin: decapeptide; Bradykinin extended at the amino end by an additional lysine radical	about 0.1 micrograms per 1 milliliter of solution
